In paper PMC10143232, “Dihydropyrimidone Derivatives as Thymidine Phosphorylase Inhibitors: Inhibition Kinetics, Cytotoxicity, and Molecular Docking” (Molecules, 2023):
Where a name gives a salt, the structure may show the parent alone. Read-outs that look alike come from different tables or passages of the source.

Columns and labels:
[1] = biological target: T1, Thymidine phosphorylase (TP) (Escherichia coli, UniProt P07650); experiment: Thymidine phosphorylase inhibition assay (spectrophotometric, 290 nm); format: biochemical, E. coli; conditions: for IC50 / Thymidine Phosphorylase Inhibitory Activity % Inhibition / TP inhibitory activity (in words): E. coli TP; for IC50: n = 3, NA: not active, read-out: Thymidine Phosphorylase Inhibitory Activity IC50 ± SEM; for inhibition at 500 µM / Thymidine Phosphorylase Inhibitory Activity % Inhibition: test compound 10 µL of 0.5 mM in 200 µL, thymidine substrate, 30 °C, pH 7.0; for TP inhibitory activity (in words): inactive = less than 50% inhibition
T1 construct: purchased Sigma Aldrich, USA
T1 sequence (P07650 whole entry): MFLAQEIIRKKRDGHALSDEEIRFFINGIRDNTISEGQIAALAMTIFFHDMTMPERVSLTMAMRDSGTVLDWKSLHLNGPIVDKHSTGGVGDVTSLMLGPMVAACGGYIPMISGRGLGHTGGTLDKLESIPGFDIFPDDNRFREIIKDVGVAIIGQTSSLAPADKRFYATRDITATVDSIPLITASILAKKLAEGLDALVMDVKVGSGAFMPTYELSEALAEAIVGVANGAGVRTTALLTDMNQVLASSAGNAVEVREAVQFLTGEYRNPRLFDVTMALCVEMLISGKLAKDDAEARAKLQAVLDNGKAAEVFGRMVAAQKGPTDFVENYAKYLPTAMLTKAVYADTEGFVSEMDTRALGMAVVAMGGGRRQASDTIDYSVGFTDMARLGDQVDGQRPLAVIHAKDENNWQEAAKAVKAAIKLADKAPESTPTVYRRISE
Method: Thymidine phosphorylase (source: E. coli, EC Number 2.4.2.4), thymidine (substrate), and potassium phosphate monobasic (as buffer) were acquired from Sigma Aldrich, USA. […] Dimethylsulfoxide (DMSO), used as a solvent, was obtained from Fisher Scientific, Schwerte, Germany.
Reaction was performed in 96-well plates and in triplicates. The 200 µL reaction mixture was comprised of 10 µL of the test compound (0.5 mM; dissolved in DMSO), 150 µL of potassium phosphate buffer (pH 7.0, 50 mM), and 20 µL of TP enzyme (0.058 unit/well). The 96-well plate containing all these reagents was then incubated at 30 °C for 10 min.
SoftMax Pro 4.8 software (Molecular Devices, San Jose, CA, USA) was used to analyse the results.
EZ-FIT, enzyme kinetics software (Perrella Scientific, Inc., Amherst, GA, USA) was used to calculate the IC50 values. In order to analyse the kinetic parameter, Grafit version 7.0 (Erithacus Software Ltd., Horley, UK) was used.

[2] = MTT cytotoxicity assay; format: cell-based; conditions: 3T3 mouse fibroblast cells, 48 h, test compounds 1 to 30 µM, NC: non-cytotoxic; for viability at 48 h: read-out: Cytotoxicity Studies Cell Viability (%)
Method: Cytotoxicity of active compounds were evaluated employing a standard MTT calorimetric assay. Mouse fibroblast (3T3 cell line) acquired from American Type Culture Collection (ATCC), Virginia, USA, was cultured in DMEM (Dulbecco’s modified eagle medium). In total, 5% FBS (fetal bovine serum), penicillin (100 IU/mL), and streptomycin ([…]) were then added to the medium in […] flasks, and kept in a CO2 incubator at 37 °C. The harvested cell was then diluted with a specific medium. Haemocytometer was used for the quantification of cells. After that, the culture of cell having concentration of 5x104 (cells/mL) was prepared, inoculated into 96-well plates (100 µL/well), and then incubated overnight. After incubation, the old medium was removed, and fresh medium (200 µL) was added. Then different concentrations of test compounds (ranging from 1 to 30 µM) were added. After incubation of 48 h, each well received 200 µL of MTT dye (0.5 mg/mL), and further incubated for a duration of 4 h. After 4 h, 100 µL of DMSO was introduced into each well of the 96-well plate. The reduction of MTT to formazan was measured by recording absorbance at 540 nm with the help of a microplate reader (SpectraMax 384, Molecular Devices, San Jose, CA, USA).

[3] = pH 7, E. coli TP, read-out: Thymidine Phosphorylase Inhibitory Activity % Inhibition

SMILES | IC50 [1] | inhibition at 500 µM [1, 3] | viability at 48 h [2] | also measured
CCOc1ccc(C2NC(=O)NC(C)=C2C(=O)OC)cc1 (centres unmarked) [Compound 2, Methyl 4-(4-ethoxyphenyl)-6-methyl-2-oxo-1,2,3,4-tetrahydropyrimidine-5-carboxylate] | 389 ± 6.2 µM | 78.2% | 67% | 
COC(=O)C1=C(C)NC(=O)NC1c1ccc2ccccc2c1 (centres unmarked) [Compound 3, Methyl 6-methyl-4-(naphthalen-2-yl)-2-oxo-1,2,3,4-tetrahydropyrimidine-5-carboxylate] |  |  |  | Thymidine Phosphorylase Inhibitory Activity % Inhibition [1]: 38.1%
CCC1NC(=O)NC(C)=C1C(=O)OC (centres unmarked) [Compound 4, Methyl 4-ethyl-6-methyl-2-oxo-1,2,3,4-tetrahydropyrimidine-5-carboxylate] |  | 46.8% |  | 
COC(=O)C1=C(C)NC(=O)NC1c1ccc(OC)cc1 (centres unmarked) [Compound 5, Methyl 4-(4-methoxyphenyl)-6-methyl-2-oxo-1,2,3,4-tetrahydropyrimidine-5-carboxylate] | 387.4 ± 2 µM | 52.9% | 72% | 
COC(=O)C1=C(C)NC(=O)NC1c1ccccc1Cl (centres unmarked) [Compound 6, Methyl 4-(2-chlorophenyl)-6-methyl-2-oxo-1,2,3,4-tetrahydropyrimidine-5-carboxylate] |  | -65.3% |  | TP inhibitory activity (in words) [1]: inactive
COC(=O)C1=C(C)NC(=O)NC1c1ccccc1OC (centres unmarked) [Compound 7, Methyl 4-(2-methoxyphenyl)-6-methyl-2-oxo-1,2,3,4-tetrahydropyrimidine-5-carboxylate] |  | -19.3% |  | 
COC(=O)C1=C(C)NC(=O)NC1c1ccc2ccccc2c1 (centres unmarked) [Compound 8, Methyl 6-methyl-4-(naphthalen-2-yl)-2-oxo-1,2,3,4-tetrahydropyrimidine-5-carboxylate] |  |  |  | Thymidine Phosphorylase Inhibitory Activity % Inhibition [1]: −10.3%
COC(=O)C1=C(C)NC(=O)NC1c1ccco1 (centres unmarked) [Compound 9, Methyl 4-(furan-2-yl)-6-methyl-2-oxo-1,2,3,4-tetrahydropyrimidine-5-carboxylate] | 373.6 ± 2.2 µM | 78.9% | 72% | 
CCCCC1NC(=O)NC(C)=C1C(=O)OC (centres unmarked) [Compound 10, Methyl 4-butyl-6-methyl-2-oxo-1,2,3,4-tetrahydropyrimidine-5-carboxylate] | 389 ± 0.6 µM | 92.7% | 66% | 
COC(=O)C1=C(C)NC(=O)NC1c1ccc(C)o1 (centres unmarked) [Compound 11, Methyl 6-methyl-4-(5-methylfuran-2-yl)-2-oxo-1,2,3,4-tetrahydropyrimidine-5-carboxylate] | 386 ± 0.6 µM | 76.9% | 77% | 
COC(=O)C1=C(C)NC(=O)NC1c1ccc(O)cc1 (centres unmarked) [Compound 13, Methyl 4-(4-hydroxyphenyl)-6-methyl-2-oxo-1,2,3,4-tetrahydropyrimidine-5-carboxylate] | 448.9 ± 4.1 µM | 56.2% | 72% | 
COC(=O)C1=C(C)NC(=O)NC1c1ccc(OC)cc1F (centres unmarked) [Compound 14, Methyl 4-(2-fluoro-4-methoxyphenyl)-6-methyl-2-oxo-1,2,3,4-tetrahydropyrimidine-5-carboxylate] | 397.1 ± 0.1 µM | 68.4% | 71% | 
COC(=O)C1=C(C)NC(=O)NC1c1cccc(O)c1 (centres unmarked) [Compound 15, Methyl 4-(3-hydroxyphenyl)-6-methyl-2-oxo-1,2,3,4-tetrahydropyrimidine-5-carboxylate] |  | 38.9% |  | 
COC(=O)C1=C(C)NC(=O)NC1c1ccc(F)c(OC)c1 (centres unmarked) [Compound 16, Methyl 4-(4-fluoro-3-methoxyphenyl)-6-methyl-2-oxo-1,2,3,4-tetrahydropyrimidine-5-carboxylate] |  | 47.8% |  | 
COC(=O)C1=C(C)NC(=O)NC1c1cc(OC)ccc1OC (centres unmarked) [Compound 17, Methyl 4-(2,5-dimethoxyphenyl)-6-methyl-2-oxo-1,2,3,4-tetrahydropyrimidine-5-carboxylate] |  | 46.5% |  | 
COC(=O)C1=C(C)NC(=O)NC1c1c(Cl)cccc1Cl (centres unmarked) [Compound 18, Methyl 4-(2,6-dichlorophenyl)-6-methyl-2-oxo-1,2,3,4-tetrahydropyrimidine-5-carboxylate] |  | -15.4% |  | TP inhibitory activity (in words) [1]: inactive
COC(=O)C1=C(C)NC(=O)NC1c1ccc(C(C)C)cc1 (centres unmarked) [Compound 19, Methyl 4-(4-isopropylphenyl)-6-methyl-2-oxo-1,2,3,4-tetrahydropyrimidine-5-carboxylate] |  | -18.5% |  | 
COC(=O)C1=C(C)NC(=O)NC1c1cccc(OC)c1OC (centres unmarked) [Compound 20, Methyl 4-(2,3-dimethoxyphenyl)-6-methyl-2-oxo-1,2,3,4-tetrahydropyrimidine-5-carboxylate] | 414.7 ± 1.6 µM | 67.8% | 62% | 
COC(=O)C1=C(C)NC(=O)NC1CC(C)C (centres unmarked) [Compound 21, Methyl 4-isobutyl-6-methyl-2-oxo-1,2,3,4-tetrahydropyrimidine-5-carboxylate] | 345.4 ± 0.5 µM | 90.7% | 55% | 
COC(=O)C1=C(C)NC(=O)NC1c1cc(Br)c(OC)c(OC)c1 (centres unmarked) [Compound 22, Methyl 4-(3-bromo-4,5-dimethoxyphenyl)-6-methyl-2-oxo-1,2,3,4-tetrahydropyrimidine-5-carboxylate] | 394 ± 4.3 µM | 61.9% | 76% | 
COC(=O)C1=C(C)NC(=O)NC1c1ccc(OC)c(OCc2ccccc2)c1 (centres unmarked) [Compound 23, Methyl 4-(3-(benzyloxy)-4-methoxyphenyl)-6-methyl-2-oxo-1,2,3,4-tetrahydropyrimidine-5-carboxylate] |  | 7.5% |  | 
COC(=O)C1=C(C)NC(=O)NC1c1ccsc1 (centres unmarked) [Compound 24, Methyl 6-methyl-2-oxo-4-(thiophen-3-yl)-1,2,3,4-tetrahydropyrimidine-5-carboxylate] | 350.6 ± 0.6 µM | 79.6% | 82% | 
COC(=O)C1=C(C)NC(=O)NC1c1ccc(OC)c(OC)c1 (centres unmarked) [Compound 25, Methyl 4-(3,4-dimethoxyphenyl)-6-methyl-2-oxo-1,2,3,4-tetrahydropyrimidine-5-carboxylate] | 424.1 ± 0.9 µM | 59% | 99% | 
COC(=O)C1=C(C)NC(=O)NC1c1cccs1 (centres unmarked) [Compound 27, Methyl 6-methyl-2-oxo-4-(thiophen-2-yl)-1,2,3,4-tetrahydropyrimidine-5-carboxylate] |  | 47.1% |  | 
COC(=O)C1=C(C)NC(=O)NC1c1cccc(OCc2ccccc2)c1 (centres unmarked) [Compound 31, Methyl 4-(3-(benzyloxy)phenyl)-6-methyl-2-oxo-1,2,3,4-tetrahydropyrimidine-5-carboxylate] |  | -41.9% |  | 
COC(=O)C1=C(C)NC(=O)NC1c1ccccc1F (centres unmarked) [Compound 35, Methyl 4-(2-fluorophenyl)-6-methyl-2-oxo-1,2,3,4-tetrahydropyrimidine-5-carboxylate] |  | 9.6% |  | TP inhibitory activity (in words) [1]: activity was lost
COC(=O)C1=C(C)NC(=O)NC1c1ccccc1OCc1ccccc1 (centres unmarked) [Compound 36, Methyl 4-(2-(benzyloxy)phenyl)-6-methyl-2-oxo-1,2,3,4-tetrahydropyrimidine-5-carboxylate] |  | 5.3% |  | 
COC(=O)C1=C(C)NC(=O)NC1c1ccc(Cl)cc1Cl (centres unmarked) [Compound 39, Methyl 4-(2,4-dichlorophenyl)-6-methyl-2-oxo-1,2,3,4-tetrahydropyrimidine-5-carboxylate] |  | -1.8% |  | TP inhibitory activity (in words) [1]: inactive
C[C@@H]1C[C@@H]([C@H](O)CC2CC(=O)NC(=O)C2)C(=O)[C@@H](C)C1 [Cycloheximide, reference compound] |  |  | 30% | IC50 at 48 h ([2]; read-out: Cytotoxicity Studies IC50 ± SD): 0.8 ± 0.2 µM
N=C1CCCN1Cc1[nH]c(=O)[nH]c(=O)c1Cl [Tipiracil-HCl, reference compound] |  |  |  | inhibition at 500 µM ([1]; pH 7, read-out: Thymidine Phosphorylase Inhibitory Activity % Inhibition, E. coli TP): 92%
